Reference: US7094760B2, “Peptides for treatment of inflammation and shock” (Salpep Biotechnology, Inc., priority 1996, dated 2006)
Entries after “also recorded” stand apart in the source; their conditions may differ.

Legend:
[1] = system: human neutrophils; assay: superoxide anion production in vitro, human neutrophils; format: cell-based; details: for superoxide anion production: 10^−7M PMA
Description: (§1) Neutrophils (10^6) were suspended in PBS buffer of the following composition: NaCl 137 mM, KCl 2.7 mM, Na2HPO4, 8.1 mM, KH2PO4 1.47 mM, CaCl2 1.19 mM, MgCl2 0.54 mM, glucose 7.5 mM and cytochrome C 1.5 mM (Sigma Chemical Co. St. Louis, […].) incubated at 37 C. Each sample was read along with a reference sample containing 1440 units of superoxide dismutase (Sigma) in a spectrophotometer (Hitachi, U200 spectrophotometer). The rate of superoxide production in response to 10^−7M phorbol myristate acetate (PMA) or 10^−5 M N-formyl-methionyl-leucyl-phenylalanine (fMLP) was then inferred from the slope. (Derian et al., (1996), Biochemistry 35(4): 1265–9).
(§2) Neutrophils obtained either from carrageenin-soaked sponges implanted subcutaneously in rats, or from the blood of healthy human volunteers, were preincubated with various doses of SGP-T for 30 minutes, then stimulated with 10^−7M PMA and the rate of superoxide anion production determined. At doses less than 1 μM, SGP-T inhibited superoxide anion production by both rat and human neutrophils, although the rat neutrophils were approximately 10-fold less sensitive than human neutrophils to this inhibitor effect (FIG. 6). At higher doses of the peptide(>1 μM), an enhancement of superoxide anion production was evident with human neutrophils.
(§3) At 0.001 and 0.01 μM SGP-T, O2^− production was inhibited by 15 to 20% in human neutrophils, while 10-fold higher concentrations were required for such inhibition with rat neutrophils. Much higher concentrations of SGP-T (10 and 20 μM) stimulated O2^− production by human neutrophils. Each value is presented as the mean ±SEM, and the number of experiments was between 6 and 12.

[2] = system: rat neutrophils; assay: superoxide anion production in vitro, rat neutrophils; format: cell-based
Description: as §1, §2, §3

[3] = system: ovalbumin-sensitized Sprague-Dawley rats; assay: anaphylactic hypotension (VPSP), ovalbumin-sensitized rats, Example 8; format: in vivo, rat; details: intravenous, 100 μg/kg, 10 min prior to antigen
Description: Animals and Tissue Preparation: Male Sprague-Dawley rats were sensitized to egg albumin (ovalbumin; OA) with 50 ng of Pertussin bortella toxin as an adjuvant. Four to six weeks after sensitization, the rats were anesthetized with sodium pentobarbital. A tracheal tube was inserted and a cannula was inserted into the left ventricle for measuring ventricular peak systolic pressure (VPSP). This cannula was coupled to a blood pressure transducer. A cannula was also inserted into the jugular view for administration of peptide (100 μg/kg) and antigen (100 μg of OA). The peptides were injected intravenously 10 min prior to antigen injection and blood pressure was recorded for 30 min.
In a second study, the peptide feG (D-phenylalanine, D-glutamate, glycine) was administered orally by a stomach tube 1 hour prior to intravenous injection of the sensitizing antigen.
Data Analysis: The percent changes in VSPS induced by anaphyalctic reaction were calculated relative to baseline VPSP. Significance differences within groups were determined with one-way analysis of variance (ANOVA), and between groups with the Student t-test.

[4] = system: ovalbumin-sensitized Hooded-Listar rats; assay: anaphylactic perturbation of intestinal motility, Example 9; format: in vivo, rat; details: intravenously at 100 μg/kg, 20 min before challenge
Description: Animals and Tissue Preparation: Male Hooded-Listar rats were sensitized to egg albumin (ovalbumin; OA). Two weeks after sensitization, the animals had electrodes implanted into the muscle of the jejunum for recording muscle electrical activity. One week later, the fasted rats received SGP-T or an analogue, either intravenously (injection via penile vein under halothane anaesthesia) or orally (via gastric tube), 20 min before challenge with OA, or bovine serum albumin as control, by intragastric administration.
The disruption of intestinal migrating myoelectric complexes (MMCs) (Scott et al., (1988), J. Physiol., v. 255, pp. G505–511), a measure of intestinal activity, and the presence of diarrhea were used as biological measurements of anaphylaxis.

[5] = system: ovalbumin-sensitized Sprague-Dawley rats, submandibular glands removed; assay: anaphylactic hypotension and heart function (VPSP, dP/dt), Example 10; format: in vivo, rat; details: for integrated (average) decrease in VPSP over the 30 min: 10 min prior to antigen, saline control 46.2±6.5
Description: Methods: Sprague-Dawley rats (200–300 g) were sensitized with 1 mg ovalbumin and 50 ng Pertussin toxin (Sigma) (24) one month prior to experimentation. The submandibular glands were removed bilaterally 7 days prior to the experiment by previously described procedures (23). Rats were anesthetized with sodium pentobarbital (65 mg/kg) and a tracheal tube (PE240 polyethylene tubing) was inserted before performing further surgeries. The jugular vein was-cannulated for injection of ovalbumin antigen, which was given as a bolus (100 μg/kg) over 10 sec. The right carotid artery was cannulated and the cannula tip was slowly advanced into the left ventricle, as detected when diastolic pressure fell to near 0 mmHg. The ventricular cannula was connected to a TXD-310 transducer and heart function parameters were recorded using a Digi-Med Heart Performance Analyser (Micro-Med, Louisville, Ky.). The effects of anaphylaxis on heart function were analysed by comparing the changes in ventricular peak systolic pressure (VPSP), and in the rate of ventricular contraction during systole (dP/dt) and relaxation during distole (−dP/dt). Antigen was injected at 10 min. The anaphylactic response was followed for 30 min.
Very rapidly (within 1 min) after the intravenous injection of antigen into ovalbumin-sensitized rats, VPSP dropped and minimal ventricular pressures were measured at 5 min after initiation of the anaphylactic reaction.
To determine if anaphylaxis directly affected heart function, the percent changes in VPSP were plotted against percent changes in dP/dt and −dP/dt. […] By analysis of variance, the slopes of the regression lines of dP/dt and −dP/dt were not different from unity.

[6] = system: endotoxin-induced fever in rats; assay: endotoxin-induced fever, Example 12; format: in vivo, rat; details: late phase (180–420 minutes); injected immediately before ip 150 μg/kg LPS
Description: Rats were operated on to remove salivary glands (or controls were sham-operated) one week before challenge with endotoxin. At the time of operation, a temperature sensitive radio transmitter was inserted in the peritoneal cavity. One week after operation, baseline temperatures were recorded by telemetry and SGP-T or saline was injected immediately before intra-peritoneal injection of 150 μg/kg LPS. Temperature was followed for 12 hours. SGP-T suppressed a late phase (180–420 minutes) of endotoxin-induced fever.

## NH2-Thr-Asp-Ile-Phe-Glu-Gly-Gly-COOH (H-TDIFEGG-OH) [SGP-T, submandibular gland peptide T, TDIFEGG]
[1]; 10 and 20 μM
  O2− production: stimulated
[1]; doses less than 1 μM
  superoxide anion production: inhibited
[1]; higher doses (>1 μM)
  superoxide anion production: enhancement
[2]; doses less than 1 μM, 10^−7M PMA
  superoxide anion production: inhibited
[2]; inhibition of superoxide anion production
  sensitivity of rat neutrophils relative to human neutrophils (less sensitive): approximately 10 fold
[2]; relative to 0.001 and 0.01 μM in human neutrophils
  higher concentrations required for 15 to 20% inhibition versus human neutrophils: 10 fold
[3]
  anaphylactic hypotension (VPSP): significantly inhibited
[4]
  intestinal anaphylaxis induced by OA: prevented or reduced
[5]; 10 μg/kg
  integrated (average) decrease in VPSP over the 30 min: 16.7±8.3 mm Hg
[5]; 100 μg/kg
  integrated (average) decrease in VPSP over the 30 min: 15.9±8.0 mm Hg
[5]; 10 and 100 μg/kg, 30 min after antigen
  VPSP by the end of the experiment: attained pre-antigen values
[5]; FIG. 12
  initial anaphylactic reaction (initial blood pressure drop): does not prevent
  sustained anaphylactic reaction: does prevent
[5]; doses of 35 and 100 μg/kg
  drop in blood pressure elicited by the anaphylactic reaction: significantly reduced
[5]; injected 10 min prior to antigen (100 μg/kg)
  anaphylactic hypotension / decrease in VPSP provoked by antigen: protected the rats against anaphylactic hypotension; also recorded: reduced significantly
[5]; lower (10 μg/kg) and higher (350 μg/kg) doses
  protection against antigen elicited hypotension: Neither lower (10 μg/kg) nor higher doses (350 μg/kg) of SGP-T protected
[6]
  endotoxin-induced fever: suppressed
